Reference: US10597388B2, “Pyridazinone herbicides” (FMC CORPORATION, priority 2014, dated 2020)

Tests used:
Assay in all cases: Test E greenhouse herbicide test, pre- and postemergence
Assay type in all cases: in vivo
[1] = system: sandbur (southem sandbur, Cenchrus echinatus)
Method in brief: (§1)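 For each species, sown seed in silt loam and young plants (2 to 18 cm) in a peat/vermiculite medium were each treated with compound dissolved in surfactant-containing, non-phytotoxic solvent. After 14 to 21 d under greenhouse conditions, effects were visually rated, 100 meaning complete control.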

[2] = system: goosegrass (Eleusine indica); settings: Preemergence
Method in brief: as §1

[3] = system: pigweed, palmer (palmer pigweed, Amaranthus palmeri)
Method in brief: as §1

corn (Zea mays) = system: corn (Zea mays)
Method in brief: as §1

[4] = system: johnsongrass (Sorghum halepense); settings: Preemergence
Method in brief: as §1

[5] = system: ragweed (common ragweed, Ambrosia elatior)
Method in brief: as §1

kochia (Kochia scoparia) = system: kochia (Kochia scoparia)
Method in brief: as §1

[6] = system: nightshade (eastern black nightshade, Solanum ptycanthum); settings: Preemergence
Method in brief: as §1

[7] = system: velvetleaf (Abutilon theophrasti); settings: Preemergence
Method in brief: as §1

[8] = system: crabgrass, Brazilian (Brazilian crabgrass, Digitaria horizontalis)
Method in brief: as §1

soybean (Glycine max) = system: soybean (Glycine max)
Method in brief: as §1

[9] = system: beggarticks (hairy beggarticks, Bidens pilosa)
Method in brief: as §1

[10] = system: panicum, fall (fall panicum, Panicum dichotomiflorum)
Method in brief: as §1

[11] = system: foxtail, giant (giant foxtail, Setaria faberii); settings: Preemergence
Method in brief: as §1

[12] = system: arrowleaf sida (Sida rhombifolia)
Method in brief: as §1

[13] = system: lambsquarters (Chenopodium album); settings: Preemergence
Method in brief: as §1

[14] = system: surinam grass (Brachiaria decumbens); settings: Preemergence
Method in brief: as §1

[15] = 62 g ai/ha, Preemergence, scale 0 to 100 (0 no effect, 100 complete control)
[16] = 125 g ai/ha, Postemergence, scale 0 to 100 (0 no effect, 100 complete control)
[17] = 125 g ai/ha, Preemergence, scale 0 to 100 (0 no effect, 100 complete control)
[18] = 250 g ai/ha, Postemergence, scale 0 to 100 (0 no effect, 100 complete control)
[19] = Preemergence, 31 g ai/ha, scale 0 to 100, 0 no effect, 100 complete control
[20] = Preemergence, 250 g ai/ha, visual, scale 0 no effect to 100 complete control
[21] = 62 g ai/ha, scale 0 to 100 (0 no effect, 100 complete control)
[22] = 31 g ai/ha, scale 0 to 100, 0 no effect, 100 complete control
[23] = 125 g ai/ha, visual, scale 0 no effect to 100 complete control
[24] = 250 g ai/ha, visual, scale 0 no effect to 100 complete control
[25] = Preemergence, 125 g ai/ha, visual, scale 0 no effect to 100 complete control
[26] = 125 g ai/ha, scale 0 to 100 (0 no effect, 100 complete control)

CCC(=O)Oc1c(C)nn(C)c(=O)c1-c1c(C)sc2c(C)cc(C)cc12 [Compound 28] was tested, and the “Plant response rating, Sandbur” value [1, 15] was 65, the “Plant response rating, Sandbur” value [1, 16] was 60 and the “Plant response rating, Sandbur” value [1, 17] was 80. The “Plant response rating, Sandbur” value [1, 18] was 80, the “Plant response rating, Sandbur” value [1, 19] was 15 and the “Plant response rating, Sandbur” value [1, 20] was 85. For the same molecule, the “Plant response rating, Goosegrass” value [2, 21] was 60, the “Plant response rating, Goosegrass” value [2, 22] was 35 and the “Plant response rating, Goosegrass” value [2, 23] was 75. For the same molecule, the “Plant response rating, Goosegrass” value [2, 24] was 90, the “Plant response rating, Pigweed, Palmer” value [3, 15] was 65 and the “Plant response rating, Pigweed, Palmer” value [3, 16] was 50. The “Plant response rating, Pigweed, Palmer” value [3, 17] was 95, the “Plant response rating, Pigweed, Palmer” value [3, 18] was 50 and the “Plant response rating, Pigweed, Palmer” value [3, 19] was 0. The “Plant response rating, Pigweed, Palmer” value [3, 20] was 98, the “Plant response rating, Corn” value (corn (Zea mays); [15]) was 0 and the “Plant response rating, Corn” value (corn (Zea mays); [16]) was 5. The “Plant response rating, Corn” value (corn (Zea mays); [18]) was 5, the “Plant response rating, Corn” value (corn (Zea mays); [19]) was 0 and the “Plant response rating, Corn” value (corn (Zea mays); [25]) was 0. For the same molecule, the “Plant response rating, Corn” value (corn (Zea mays); [20]) was 0, the “Plant response rating, Johnsongrass” value [4, 21] was 80 and the “Plant response rating, Johnsongrass” value [4, 22] was 70. For the same molecule, the “Plant response rating, Johnsongrass” value [4, 23] was 80, the “Plant response rating, Johnsongrass” value [4, 24] was 90 and the “Plant response rating, Ragweed” value [5, 15] was 90. The “Plant response rating, Ragweed” value [5, 16] was 70, the “Plant response rating, Ragweed” value [5, 17] was 95 and the “Plant response rating, Ragweed” value [5, 18] was 75. The “Plant response rating, Ragweed” value [5, 19] was 95, the “Plant response rating, Ragweed” value [5, 20] was 98 and the “Plant response rating, Kochia” value (kochia (Kochia scoparia); [15]) was 0. The “Plant response rating, Kochia” value (kochia (Kochia scoparia); [16]) was 75, the “Plant response rating, Kochia” value (kochia (Kochia scoparia); [18]) was 90 and the “Plant response rating, Kochia” value (kochia (Kochia scoparia); [19]) was 0. The “Plant response rating, Kochia” value (kochia (Kochia scoparia); [25]) was 60, the “Plant response rating, Kochia” value (kochia (Kochia scoparia); [20]) was 100 and the “Plant response rating, Nightshade” value [6, 21] was 98. For the same molecule, the “Plant response rating, Nightshade” value [6, 26] was 98, the “Plant response rating, Nightshade” value [6, 22] was 80 and the “Plant response rating, Nightshade” value [6, 24] was 100. For the same molecule, the “Plant response rating, Velvetleaf” value [7, 21] was 35, the “Plant response rating, Velvetleaf” value [7, 26] was 70 and the “Plant response rating, Velvetleaf” value [7, 22] was 0. The “Plant response rating, Velvetleaf” value [7, 24] was 100, the “Plant response rating, Crabgrass, Brazil” value [8, 15] was 70 and the “Plant response rating, Crabgrass, Brazil” value [8, 16] was 50. For the same molecule, the “Plant response rating, Crabgrass, Brazil” value [8, 18] was 60, the “Plant response rating, Crabgrass, Brazil” value [8, 19] was 70 and the “Plant response rating, Crabgrass, Brazil” value [8, 25] was 80. The “Plant response rating, Crabgrass, Brazil” value [8, 20] was 90, the “Plant response rating, Soybean” value (soybean (Glycine max); [15]) was 0 and the “Plant response rating, Soybean” value (soybean (Glycine max); [16]) was 50. For the same molecule, the “Plant response rating, Soybean” value (soybean (Glycine max); [17]) was 0, the “Plant response rating, Soybean” value (soybean (Glycine max); [18]) was 60 and the “Plant response rating, Soybean” value (soybean (Glycine max); [19]) was 0. For the same molecule, the “Plant response rating, Soybean” value (soybean (Glycine max); [20]) was 0, the “Plant response rating, Beggarticks” value [9, 15] was 100 and the “Plant response rating, Beggarticks” value [9, 16] was 100. The “Plant response rating, Beggarticks” value [9, 18] was 100, the “Plant response rating, Beggarticks” value [9, 19] was 100 and the “Plant response rating, Beggarticks” value [9, 25] was 100. For the same molecule, the “Plant response rating, Beggarticks” value [9, 20] was 100, the “Plant response rating, Panicum, Fall” value [10, 15] was 95 and the “Plant response rating, Panicum, Fall” value [10, 16] was 70. For the same molecule, the “Plant response rating, Panicum, Fall” value [10, 17] was 98, the “Plant response rating, Panicum, Fall” value [10, 18] was 90 and the “Plant response rating, Panicum, Fall” value [10, 19] was 90. For the same molecule, the “Plant response rating, Panicum, Fall” value [10, 20] was 100, the “Plant response rating, Foxtail, Giant” value [11, 21] was 100 and the “Plant response rating, Foxtail, Giant” value [11, 22] was 85. For the same molecule, the “Plant response rating, Foxtail, Giant” value [11, 23] was 100, the “Plant response rating, Foxtail, Giant” value [11, 24] was 100 and the “Plant response rating, Arrowleaf Sida” value [12, 15] was 0. The “Plant response rating, Arrowleaf Sida” value [12, 16] was 60, the “Plant response rating, Arrowleaf Sida” value [12, 18] was 60 and the “Plant response rating, Arrowleaf Sida” value [12, 25] was 50. For the same molecule, the “Plant response rating, Arrowleaf Sida” value [12, 20] was 70, the “Plant response rating, Lambsquarters” value [13, 21] was 100 and the “Plant response rating, Lambsquarters” value [13, 22] was 100. The “Plant response rating, Lambsquarters” value [13, 23] was 100, the “Plant response rating, Lambsquarters” value [13, 24] was 98 and the “Plant response rating, Surinam Grass” value [14, 21] was 98. For the same molecule, the “Plant response rating, Surinam Grass” value [14, 26] was 100, the “Plant response rating, Surinam Grass” value [14, 22] was 85 and the “Plant response rating, Surinam Grass” value [14, 24] was 98.

In the case of CCOC(=O)Oc1c(C)nn(C)c(=O)c1-c1c(CC)ccc2ccccc12 [Compound 37], the “Plant response rating, Sandbur” value [1, 15] is reported as 35, the “Plant response rating, Sandbur” value [1, 17] is reported as 50 and the “Plant response rating, Sandbur” value [1, 19] is reported as 20. For the same molecule, the “Plant response rating, Sandbur” value [1, 20] was 65, the “Plant response rating, Goosegrass” value [2, 21] was 35 and the “Plant response rating, Goosegrass” value [2, 22] was 35. The “Plant response rating, Goosegrass” value [2, 23] was 75, the “Plant response rating, Goosegrass” value [2, 24] was 80 and the “Plant response rating, Pigweed, Palmer” value [3, 15] was 90. For the same molecule, the “Plant response rating, Pigweed, Palmer” value [3, 17] was 100, the “Plant response rating, Pigweed, Palmer” value [3, 19] was 0 and the “Plant response rating, Pigweed, Palmer” value [3, 20] was 100. For the same molecule, the “Plant response rating, Corn” value (corn (Zea mays); [15]) was 0, the “Plant response rating, Corn” value (corn (Zea mays); [19]) was 0 and the “Plant response rating, Corn” value (corn (Zea mays); [25]) was 0. For the same molecule, the “Plant response rating, Corn” value (corn (Zea mays); [20]) was 0, the “Plant response rating, Johnsongrass” value [4, 21] was 0 and the “Plant response rating, Johnsongrass” value [4, 22] was 0. The “Plant response rating, Johnsongrass” value [4, 23] was 100, the “Plant response rating, Johnsongrass” value [4, 24] was 100 and the “Plant response rating, Ragweed” value [5, 15] was 90. The “Plant response rating, Ragweed” value [5, 17] was 95, the “Plant response rating, Ragweed” value [5, 19] was 50 and the “Plant response rating, Ragweed” value [5, 20] was 98. The “Plant response rating, Kochia” value (kochia (Kochia scoparia); [15]) was 0, the “Plant response rating, Kochia” value (kochia (Kochia scoparia); [19]) was 0 and the “Plant response rating, Kochia” value (kochia (Kochia scoparia); [25]) was 0. The “Plant response rating, Kochia” value (kochia (Kochia scoparia); [20]) was 65, the “Plant response rating, Nightshade” value [6, 21] was 80 and the “Plant response rating, Nightshade” value [6, 26] was 98. For the same molecule, the “Plant response rating, Nightshade” value [6, 22] was 90, the “Plant response rating, Nightshade” value [6, 24] was 98 and the “Plant response rating, Velvetleaf” value [7, 21] was 50. The “Plant response rating, Velvetleaf” value [7, 26] was 70, the “Plant response rating, Velvetleaf” value [7, 22] was 30 and the “Plant response rating, Velvetleaf” value [7, 24] was 100. For the same molecule, the “Plant response rating, Crabgrass, Brazil” value [8, 15] was 85, the “Plant response rating, Crabgrass, Brazil” value [8, 19] was 70 and the “Plant response rating, Crabgrass, Brazil” value [8, 25] was 90. The “Plant response rating, Crabgrass, Brazil” value [8, 20] was 95, the “Plant response rating, Soybean” value (soybean (Glycine max); [15]) was 0 and the “Plant response rating, Soybean” value (soybean (Glycine max); [19]) was 0. The “Plant response rating, Soybean” value (soybean (Glycine max); [20]) was 0, the “Plant response rating, Beggarticks” value [9, 15] was 98 and the “Plant response rating, Beggarticks” value [9, 19] was 80. The “Plant response rating, Beggarticks” value [9, 25] was 98, the “Plant response rating, Beggarticks” value [9, 20] was 100 and the “Plant response rating, Panicum, Fall” value [10, 15] was 100. The “Plant response rating, Panicum, Fall” value [10, 17] was 100, the “Plant response rating, Panicum, Fall” value [10, 19] was 90 and the “Plant response rating, Panicum, Fall” value [10, 20] was 100. The “Plant response rating, Foxtail, Giant” value [11, 21] was 70, the “Plant response rating, Foxtail, Giant” value [11, 22] was 65 and the “Plant response rating, Foxtail, Giant” value [11, 23] was 80. The “Plant response rating, Foxtail, Giant” value [11, 24] was 90, the “Plant response rating, Arrowleaf Sida” value [12, 15] was 85 and the “Plant response rating, Arrowleaf Sida” value [12, 19] was 70. The “Plant response rating, Arrowleaf Sida” value [12, 25] was 90, the “Plant response rating, Arrowleaf Sida” value [12, 20] was 98 and the “Plant response rating, Lambsquarters” value [13, 21] was 100. The “Plant response rating, Lambsquarters” value [13, 22] was 100, the “Plant response rating, Lambsquarters” value [13, 23] was 98 and the “Plant response rating, Lambsquarters” value [13, 24] was 100. For the same molecule, the “Plant response rating, Surinam Grass” value [14, 21] was 75, the “Plant response rating, Surinam Grass” value [14, 26] was 75 and the “Plant response rating, Surinam Grass” value [14, 22] was 50. The “Plant response rating, Surinam Grass” value [14, 24] was 90.
